From patent publication US7507547B2, “Screening assays for antioxidants and antiproliferative compounds” (University of Massachusetts, priority 2004, dated 2009)
Where “and” joins values, the source holds several entries; their conditions need not be identical. Equal values may be shown once. Read-outs that look alike come from different tables or passages of the source. Square brackets hold non-standard residues; d marks the D form. Peptide text beside a SMILES is read from it. * marks the point of attachment. pGlu = O=C1CC[C@@H](C(=O)O)N1; X1 = O=C(Cc1ccc(O)c(I)c1)*; Nle = CCCC[C@H](N)C(=O)O

Experiments:
[1] = system: ATP-induced IP formation in PC3 cells; settings: maximal dose (10 μM)
EGF receptor = biological target: T1, EGF receptor (Homo sapiens, UniProt P00533); assay: ^125I-EGF binding to PC3 cells
T1 construct: endogenous in cells; host or cells: PC3 cells (ATCC)
T1 sequence (P00533 25-1210): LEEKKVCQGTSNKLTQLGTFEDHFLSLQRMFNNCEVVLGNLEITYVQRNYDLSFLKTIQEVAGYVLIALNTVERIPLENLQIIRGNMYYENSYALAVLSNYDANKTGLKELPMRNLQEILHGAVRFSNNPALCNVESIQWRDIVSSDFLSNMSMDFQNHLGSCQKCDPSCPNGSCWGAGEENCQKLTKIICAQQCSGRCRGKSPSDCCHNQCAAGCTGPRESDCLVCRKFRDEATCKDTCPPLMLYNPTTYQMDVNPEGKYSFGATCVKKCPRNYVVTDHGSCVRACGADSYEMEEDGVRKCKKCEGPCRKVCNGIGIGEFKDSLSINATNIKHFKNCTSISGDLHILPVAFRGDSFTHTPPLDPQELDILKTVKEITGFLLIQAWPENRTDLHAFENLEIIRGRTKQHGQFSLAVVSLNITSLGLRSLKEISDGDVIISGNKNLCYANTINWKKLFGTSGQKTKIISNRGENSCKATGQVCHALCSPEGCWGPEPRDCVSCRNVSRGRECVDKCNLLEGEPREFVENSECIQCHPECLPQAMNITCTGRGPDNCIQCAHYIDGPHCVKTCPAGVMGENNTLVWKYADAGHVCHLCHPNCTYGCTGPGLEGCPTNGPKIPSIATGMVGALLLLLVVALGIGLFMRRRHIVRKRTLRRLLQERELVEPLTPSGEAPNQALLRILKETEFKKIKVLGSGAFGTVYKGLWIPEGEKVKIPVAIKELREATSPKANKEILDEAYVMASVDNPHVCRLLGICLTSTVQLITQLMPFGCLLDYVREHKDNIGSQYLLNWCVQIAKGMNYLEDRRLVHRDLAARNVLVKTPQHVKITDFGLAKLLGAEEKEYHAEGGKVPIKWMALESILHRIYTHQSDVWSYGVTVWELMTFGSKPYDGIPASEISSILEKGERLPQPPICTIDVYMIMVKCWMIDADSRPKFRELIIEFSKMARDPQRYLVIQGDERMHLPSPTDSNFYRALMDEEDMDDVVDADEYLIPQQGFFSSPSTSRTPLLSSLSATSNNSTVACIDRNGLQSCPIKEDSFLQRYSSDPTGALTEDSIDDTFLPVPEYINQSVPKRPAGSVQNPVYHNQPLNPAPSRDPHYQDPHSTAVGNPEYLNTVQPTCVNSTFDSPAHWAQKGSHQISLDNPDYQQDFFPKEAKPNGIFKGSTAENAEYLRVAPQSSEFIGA

NTR1 [2] = biological target: T2, NTR1 (Homo sapiens, UniProt P30989); assay: ^125I-NT binding to PC3 cells; settings: for NT Binding Assay: ability to enhance NT binding in PC3 cells; for Efficacy for altering NT binding to NTR: flavonoids
T2 construct: endogenous in cells; host or cells: PC3 cells (ATCC)
T2 sequence (P30989 whole entry): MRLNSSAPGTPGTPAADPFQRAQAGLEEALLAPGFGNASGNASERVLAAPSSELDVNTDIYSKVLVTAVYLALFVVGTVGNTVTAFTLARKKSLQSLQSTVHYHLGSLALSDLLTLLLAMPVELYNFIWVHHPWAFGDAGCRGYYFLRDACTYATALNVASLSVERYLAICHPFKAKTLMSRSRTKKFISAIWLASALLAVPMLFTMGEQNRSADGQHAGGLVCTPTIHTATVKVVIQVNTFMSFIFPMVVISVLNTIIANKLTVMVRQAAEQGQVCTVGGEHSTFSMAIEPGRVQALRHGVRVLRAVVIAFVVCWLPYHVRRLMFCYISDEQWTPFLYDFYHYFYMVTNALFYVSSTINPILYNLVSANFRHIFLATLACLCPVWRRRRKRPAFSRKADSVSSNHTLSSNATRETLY

NTR1 [3] = biological target: T2, NTR1; assay: ^125I-NT binding to PC3 cell membranes; settings: 22° C., 60 minutes
[4] = set-up: key: +: All of the compounds listed in Table 12 were anticancerous; settings: from anticancer literature; cited from earlier work
5-LOX = settings: range of reported values, various blood cell systems; cited from earlier work
[5] = biological target: T3, vasopressin (V1a) receptor (Homo sapiens, UniProt P37288); assay: ^125I-HOLVA binding to PC3 cells
T3 construct: endogenous in cells; host or cells: PC3 cells (ATCC)
T3 sequence (P37288 whole entry): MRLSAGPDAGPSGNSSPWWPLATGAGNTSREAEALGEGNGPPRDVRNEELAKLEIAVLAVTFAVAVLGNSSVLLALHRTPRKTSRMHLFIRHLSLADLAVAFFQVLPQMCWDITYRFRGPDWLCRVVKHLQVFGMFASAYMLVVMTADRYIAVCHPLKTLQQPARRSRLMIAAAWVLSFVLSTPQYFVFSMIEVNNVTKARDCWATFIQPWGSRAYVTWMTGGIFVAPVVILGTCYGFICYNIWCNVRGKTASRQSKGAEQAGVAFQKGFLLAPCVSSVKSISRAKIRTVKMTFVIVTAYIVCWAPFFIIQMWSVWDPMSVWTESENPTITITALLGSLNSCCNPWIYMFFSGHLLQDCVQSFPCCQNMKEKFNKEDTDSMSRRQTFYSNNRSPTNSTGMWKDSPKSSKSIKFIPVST

β2-adrenergic receptor [6] = biological target: T4, β2-adrenergic receptor (Homo sapiens, UniProt P07550); assay: ^125I-pindolol binding to PC3 cells
T4 construct: endogenous in cells; host or cells: PC3 cells (ATCC)
T4 sequence (P07550 whole entry): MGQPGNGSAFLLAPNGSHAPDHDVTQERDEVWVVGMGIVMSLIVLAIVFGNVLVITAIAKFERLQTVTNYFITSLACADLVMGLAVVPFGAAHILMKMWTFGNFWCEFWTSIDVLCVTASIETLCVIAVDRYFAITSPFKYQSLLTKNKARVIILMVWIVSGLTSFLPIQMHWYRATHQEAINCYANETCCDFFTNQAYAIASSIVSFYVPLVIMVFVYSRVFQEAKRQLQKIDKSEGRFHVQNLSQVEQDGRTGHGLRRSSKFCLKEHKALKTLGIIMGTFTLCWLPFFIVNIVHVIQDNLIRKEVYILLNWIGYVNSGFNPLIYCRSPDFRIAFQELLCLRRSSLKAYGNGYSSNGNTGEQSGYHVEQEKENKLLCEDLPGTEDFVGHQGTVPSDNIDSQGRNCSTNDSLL

bombesin receptor = biological target: T5, bombesin receptor (Homo sapiens, UniProt P30550); assay: ^125I-[Nle14]-bombesin binding to PC3 cells
T5 construct: endogenous in cells; host or cells: PC3 cells (ATCC)
T5 sequence (P30550 whole entry): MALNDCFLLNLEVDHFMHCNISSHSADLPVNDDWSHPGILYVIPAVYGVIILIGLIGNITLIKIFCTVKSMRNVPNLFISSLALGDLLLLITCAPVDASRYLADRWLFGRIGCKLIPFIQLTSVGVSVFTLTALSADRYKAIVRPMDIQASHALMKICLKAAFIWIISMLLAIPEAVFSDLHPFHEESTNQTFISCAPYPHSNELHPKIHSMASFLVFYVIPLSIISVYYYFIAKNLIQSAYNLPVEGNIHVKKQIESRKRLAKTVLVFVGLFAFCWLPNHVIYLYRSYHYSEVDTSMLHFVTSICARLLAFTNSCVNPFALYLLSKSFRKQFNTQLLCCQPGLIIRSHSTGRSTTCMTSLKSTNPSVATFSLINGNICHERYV

[7] = biological target: T3, vasopressin (V1a) receptor; assay: ^125I-HOLVA binding to PC3 cell membranes; settings: 60 μM agent
NTR1 [8] = biological target: T2, NTR1; assay: Cell-surface binding and internalization of ^125I-NT in PC3 cells; format: cell-based; settings: 50 μM agent, 37° C., prebound at 4° C.
[9] = system: NT-induced inositol phosphate (IP) formation in PC3 cells; assay: NT-induced IP formation in PC3 cells; format: cell-based; settings: for IC50: Homo sapiens, PC-3; for IP Formation Efficacy (% decrease): maximal % decrease in NT-induced IP formation
β2-adrenergic receptor [10] = biological target: T4, β2-adrenergic receptor; assay: ^125I-pindolol binding to PC3 cell membranes; settings: 60 μM agent
[11] = system: IP formation in PC3 cells; assay: IP formation in PC3 cells in response to ionomycin; format: cell-based
Protocol: Ca^2+-ionophore (ionomycin) stimulated IP formation, reproducing ≅63% of the NT response. […] When added 2 minutes after a maximal dose of NT (30 nM), low doses of ionomycin (2-10 μM) enhanced the NT response. […] In contrast, a maximal dose of ionomycin gave less than additive enhancement of the NT response.

PC3 cells = assay: NT-induced proliferation of PC3 cells (^3H-thymidine); format: cell-based; settings: for IC50: Homo sapiens, PC-3, 24 hours, 10 nM NT, read-out: IC50 for inhibition of NT-induced proliferation
ERK = assay: NT-induced ERK activation in PC3 cells (western blot); format: cell-based; settings: for IC50: Homo sapiens, PC-3, 0.05 h, 3 minutes, 10 nM NT
Protocol: Anticancer activity was assessed using methods from Hassan et al., Regul. […] Western blotting was used to assess activation of growth pathways. In particular we measured the activation of a MAP-kinase called ERK using antibodies specific for the phosphorylated form. Serum was withdrawn for 24 hours from 80% confluent PC3 cells in 60 mm dishes. Cells were washed in Locke, then exposed for 3 minutes to 10 nM NT as stimulus. Reactions were stopped on ice, and cells were washed in buffer containing phosphatase and protease inhibitors. Cells were extracted into 2×SDS buffer, and proteins were separated by SDS-PAGE using 10% minigels. Proteins were electroeluted onto PVDF, and blots were blocked in non-fat dry milk in TTBS buffer. Blots were incubated with the primary antibody in blocking buffer for 18 hours at 4° C., washed in TTBS, then incubated with horseradish peroxidase-linked secondary antibody for 1 hour at 20° C. Enhanced chemoluminescence was performed according to manufacturer (Santa Cruz) and autoradiographs were scanned for computerized densitometric analysis. The results for the phospho-ERK were normalized by stripping the blots and reprobing with antibodies that measured the total ERK concentration.

protein kinase C = settings: Ferriola et al., 1989; cited from earlier work
melanoma cell growth = settings: Casagrande and Darbon, 2001; cited from earlier work
[12] = system: cancers from skin, pancreas, liver and breast; settings: Huang et al., 1999; cited from earlier work
[13] = biological target: neurotensin-1 receptor (NTR1) (Homo sapiens, UniProt P30989); settings: read-out: binding affinity; cited from earlier work
Chain of neurotensin-1 receptor (NTR1) (P30989 whole entry, species assumed): as the sequence (P30989 whole entry) above

[14] = biological target: neurotensin-2 receptor (NTR2) (Homo sapiens, UniProt O95665); settings: read-out: binding affinity; cited from earlier work
Chain of neurotensin-2 receptor (NTR2) (O95665 whole entry, species assumed): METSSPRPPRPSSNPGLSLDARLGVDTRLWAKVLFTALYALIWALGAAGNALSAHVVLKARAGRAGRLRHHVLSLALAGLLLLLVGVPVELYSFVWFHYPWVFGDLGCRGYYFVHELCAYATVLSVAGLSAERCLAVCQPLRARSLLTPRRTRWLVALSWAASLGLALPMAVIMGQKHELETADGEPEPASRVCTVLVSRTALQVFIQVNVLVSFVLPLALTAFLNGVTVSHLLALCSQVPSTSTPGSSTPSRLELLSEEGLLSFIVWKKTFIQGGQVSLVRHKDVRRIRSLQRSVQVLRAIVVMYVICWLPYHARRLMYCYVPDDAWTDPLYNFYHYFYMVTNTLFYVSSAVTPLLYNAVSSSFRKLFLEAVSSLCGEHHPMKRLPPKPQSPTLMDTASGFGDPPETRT

[15] = [agent] at which IP formation was decreased by 50%
[16] = 10^5 cpm ^125I-ligand, PC3 cells

Nc1ncnc2c1ncn2[C@@H]1O[C@H](COP(=O)(O)OP(=O)(O)OP(=O)(O)O)[C@@H](O)[C@H]1O [ATP]
Stimulation of IP formation by ATP [1]: ~17 fold and > 15 fold

CC(C)c1ccc2c(c1)c(SC(C)(C)C)c(CC(C)(C)C(=O)O)n2Cc1ccc(Cl)cc1 [MK886]
Specific Binding (% control) (EGF receptor; 12 μM agent): 141 ± 7 % control
Specific Binding (% control) (EGF receptor; 60 μM agent): 165 ± 11 % control
Increase in EGF binding (EGF receptor; PC3 cells): 65%
NT Binding Efficacy % increase (NTR1 [2]; LOX blockers): 210 % increase
EC50 (NTR1 [2]; [agent] giving 100% increase in NT binding): 18 µM
NT Binding Assay (NTR1 [2]): +
Specific NT-Binding (% control) (NTR1 [3]; 10 μM agent): 99 ± 3 % control
Specific NT-Binding (% control) (NTR1 [3]; 25 μM agent): 107 ± 4 % control
Specific NT-Binding (% control) (NTR1 [3]; 75 μM agent): 97 ± 4 % control
Anti-cancer [4]: +
IC50 (5-LOX): 0.1 to 1 µM
Specific Binding (% control) ([5]; 12 μM agent): 93 ± 5 % control
Specific Binding (% control) ([5]; 60 μM agent): 67 ± 3 % control
Specific Binding (% control) (β2-adrenergic receptor [6]; 12 μM agent): 105 ± 3 % control
Specific Binding (% control) (β2-adrenergic receptor [6]; 60 μM agent): 102 ± 6 ^ % control
Specific Binding (% control) (bombesin receptor; 12 μM agent): 106 ± 5 % control
Specific Binding (% control) (bombesin receptor; 60 μM agent): 125 ± 7 % control

COC(=O)C1=C(C)NC(C)=C(C(=O)OC)C1c1ccccc1[N+](=O)[O-] [NIF, nifedipine]
Binding (% control ± SEM) [7]: 90 ± 3 % control

O=C(CCc1ccc(O)cc1)c1c(O)cc(O)cc1O [Phloretin]
Internalization rate of prebound cell-surface ^125I-NT (NTR1 [8]): 8.1±0.7 %/minute
EC50 (NTR1 [2]): 27 µM
IC50 [9, 15]: 23 µM
IP Formation Efficacy (% decrease) [9]: 70 % decrease

COc1ccc(CCCOC(Cn2ccnc2)c2ccc(OC)cc2)cc1 (centres unmarked) [SKF-96365]
EC50 (NTR1 [2]; [agent] at which NT binding was increased by 80%): 23 µM
NT Binding Efficacy % increase (NTR1 [2]; maximal % increase in NT binding observed for each agent): 155 % increase
Binding (% control ± SEM) [7]: 110 ± 3 % control
% crossreaction (direct competition with ^125I-pindolol) (β2-adrenergic receptor [6]): ~0.0005%
IC50 [9, 15]: 26 µM
IP Formation Efficacy (% decrease) [9]: 69 % decrease
Binding (% control ± SEM) (β2-adrenergic receptor [10]): 18 ± 5 % control

COc1ccc(CCN(C)CCCC(C#N)(c2ccc(OC)c(OC)c2)C(C)C)cc1OC (centres unmarked) [Verapamil, verapamil]
Binding (% control ± SEM) [7]: 91 ± 5 % control
% crossreaction (direct competition with ^125I-pindolol) (β2-adrenergic receptor [6]): ~0.0005%
Binding (% control ± SEM) (β2-adrenergic receptor [10]): 9 ± 2 % control

CCOc1ccc(C[C@@H](NC(=O)Cc2ccc(O)c(I)c2)C(=O)N[C@@H](Cc2ccccc2)C(=O)N[C@@H](CCC(N)=O)C(=O)N[C@@H](CC(N)=O)C(=O)N[C@@H](CCCCN)C(=O)N2CCC[C@H]2C(=O)N[C@@H](CCCNC(=N)N)C(N)=O)cc1 [^125I-HOLVA, des-Gly-[Phaal, D-Tyr(Et)2, Lys6, Arg8]-vasopressin] (X1-[dY](Et)FQNKPR-NH2; N-terminus and C-terminus assumed)
Specific Binding (% of total) [5, 16]: 77 % of total
Bmax ([5]; Scatchard analysis): 156 ± 12 fmol/mg

CCCC[C@H](NC(=O)[C@H](CC(C)C)NC(=O)[C@H](Cc1c[nH]cn1)NC(=O)CNC(=O)[C@@H](NC(=O)[C@H](C)NC(=O)[C@H](Cc1c[nH]c2ccccc12)NC(=O)[C@H](CCC(N)=O)NC(=O)[C@H](CC(N)=O)NC(=O)CNC(=O)[C@H](Cc1ccc(O)cc1)NC(=O)[C@H](CCCNC(=N)N)NC(=O)[C@H](CCC(N)=O)NC(=O)[C@@H]1CCC(=O)N1)C(C)C)C(N)=O [^125I-[Nle^14]-bombesin] ([pGlu]QRYGNQWAVGHL[Nle]-NH2; C-terminus assumed)
Specific Binding (% of total) (bombesin receptor; [16]): 95 % of total
Bmax (bombesin receptor; Scatchard analysis): 1016 ± 64 fmol/mg

C[C@H](CCC(=O)O)C[C@H](C)C[C@H](C)C(=O)/C=C(\O)[C@H](C)C[C@H](C)C/C=C/[C@@H](C)[C@@H](O)[C@@H](C)[C@@H](O)C[C@@H]1CC[C@@](C)([C@H]2CC[C@@](C)([C@@H](C)O)O2)O1 [ionomycin]
IP formation as share of the NT response [11]: ~63%

O=c1c(O)c(-c2ccc(O)c(O)c2)oc2cc(O)cc(O)c12 [quercetin]
NT Binding Assay (NTR1 [2]): +
IC50 (PC3 cells): 0.5 µM
Anti-cancer [4]: +
IC50 (ERK): 25 µM

Oc1ccc(C=Cc2cc(O)cc(O)c2)cc1 [resveratrol]
IC50 (PC3 cells): 3 µM
IC50 (ERK): 50 µM
IC50 ([9]; [agent] giving 50% decrease in IP formation): 48 µM

C(=Cc1ccccc1)c1ccccc1 [stilbene]
Effect on NT-induced cell proliferation (PC3 cells): inactive
Effect on NT-induced ERK activation (ERK): inactive

O=C1c2c(O)cc(O)cc2O[C@H](c2ccc(O)c(O)c2)[C@H]1O [taxifolin]
Efficacy for altering NT binding to NTR (NTR1 [2]): inactive
Effect on NT-induced cell proliferation (PC3 cells): inactive
Efficacy to inhibit protein kinase C (protein kinase C): inactive
Effect on NT-induced ERK activation (ERK): inactive
Efficacy to inhibit melanoma cell growth (melanoma cell growth): inactive
Efficacy to inhibit growth of cancers from skin, pancreas, liver and breast [12]: inactive

Trp 11 NT(1-13): peptide identical to NT (1-13) except for substitution of tryptophan for tyrosine at amino acid 11 (QLYENKPRRPWIL; Neurotensin; UniProt P30990 151-163, looked up, variant Y11W)
Kd [13]: ~0.001 µM
Kd [14]: ~0.027 µM

catechin
Efficacy for altering NT binding to NTR (NTR1 [2]): inactive
Efficacy to inhibit protein kinase C (protein kinase C): inactive
Efficacy to inhibit melanoma cell growth (melanoma cell growth): inactive
Efficacy to inhibit growth of cancers from skin, pancreas, liver and breast [12]: inactive
